The record followed here is US9029359B2, “Heteroaryl Btk inhibitors” (Biogen Idec MA, Inc., priority 2009, dated 2015).

SMILES strings stand for the structures. pIC50: −log10 of the molar value.

This test deals with T1, BTK (Homo sapiens, UniProt Q06187).
T1 construct: purchased Upstate 14-552
T1 sequence (Q06187 whole entry): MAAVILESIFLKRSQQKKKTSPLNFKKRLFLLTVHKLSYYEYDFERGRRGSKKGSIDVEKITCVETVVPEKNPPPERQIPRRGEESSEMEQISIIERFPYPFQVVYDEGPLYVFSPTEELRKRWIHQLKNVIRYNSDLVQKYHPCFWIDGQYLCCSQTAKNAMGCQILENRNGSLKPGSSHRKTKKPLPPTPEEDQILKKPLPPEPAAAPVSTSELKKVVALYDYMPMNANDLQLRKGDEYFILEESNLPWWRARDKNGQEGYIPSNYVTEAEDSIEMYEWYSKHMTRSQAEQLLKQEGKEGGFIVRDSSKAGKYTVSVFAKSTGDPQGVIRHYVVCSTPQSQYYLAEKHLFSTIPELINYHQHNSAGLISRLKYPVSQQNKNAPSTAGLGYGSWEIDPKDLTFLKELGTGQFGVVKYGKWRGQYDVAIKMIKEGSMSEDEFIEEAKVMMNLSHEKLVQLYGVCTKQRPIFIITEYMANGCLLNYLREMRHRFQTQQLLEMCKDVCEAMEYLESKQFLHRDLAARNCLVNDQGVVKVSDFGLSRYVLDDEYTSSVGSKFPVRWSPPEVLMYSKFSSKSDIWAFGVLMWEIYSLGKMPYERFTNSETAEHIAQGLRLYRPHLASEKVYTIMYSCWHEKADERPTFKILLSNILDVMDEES
Kind of test: In vitro BTK kinase assay: BTK-POLYGAT-LS ASSAY. The settings on record: ATP 10 uM. The format is biochemical. The method in brief: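 BTK phosphorylation of polyGAT (100 nM final) with ATP at 10 μM final, 10 mM Tris-HCl pH 7.5 kinase buffer, quenched by EDTA after 30 min. Potency given as IC50.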
With `O=C(CNc1cccc(F)c1F)N[C@@H]1CCCN(c2ncnc3[nH]ccc23)C1` [Example 422], the negative logarithm of the IC50 (pIC50) – broadly, −log10 of the IC50, conventionally taken in molar units – is 6.00 to 7.00.
The compound `O=C(CNc1cc(C(F)(F)F)ccc1N1CCCCC1)N[C@@H]1CCCN(c2ncnc3[nH]ccc23)C1` [Example 423] showed a negative-log IC50 (pIC50) of 5.00 to 6.00.
For `O=C(N[C@@H]1CCCN(c2ncnc3[nH]ccc23)C1)[C@@H](CO)Nc1cc(F)cc(Cl)c1` [Example 424], the negative-log IC50 (pIC50) was 5.00 to 6.00.
With `O=C(O)CC[C@@H](Nc1ccccc1)C(=O)N[C@@H]1CCCN(c2ncnc3[nH]ccc23)C1` [Example 425] the figure was 5.00 to 6.00; with `Cc1ccc(NCC(=O)N[C@@H]2CCCN(c3ncnc4[nH]ccc34)C2)cc1` [Example 426], 6.00 to 7.00.
Regarding `Cc1ccc(C)c(NCC(=O)N[C@@H]2CCCN(c3ncnc4[nH]ccc34)C2)c1` [Example 427], the pIC50 was 5.00 to 6.00.
The compound `Cc1cc(C)c(NCC(=O)N[C@@H]2CCCN(c3ncnc4[nH]ccc34)C2)c(C)c1` [Example 428] had a pIC50 of 5.00 to 6.00.
For the compound `O=C(CNc1cccc(N2CCCCC2)c1)N[C@@H]1CCCN(c2ncnc3[nH]ccc23)C1` [Example 429], the pIC50 was 5.00 to 6.00.
`Cc1ccc(NCC(=O)N[C@@H]2CCCN(c3ncnc4[nH]ccc34)C2)c(Cl)c1` [Example 430] gave a pIC50 of 5.00 to 6.00.
Take `O=C(CNC(Cc1ccccc1)c1ccccc1)N[C@@H]1CCCN(c2ncnc3[nH]ccc23)C1` (stereo partly drawn) [Example 431]: the negative-log IC50 (pIC50) is 5.00 to 6.00.
As for `O=C(CNc1cccc([N+](=O)[O-])c1)N[C@@H]1CCCN(c2ncnc3[nH]ccc23)C1` [Example 432], the negative-log IC50 (pIC50) was 5.00 to 6.00.
With `N#Cc1ccccc1NCC(=O)N[C@@H]1CCCN(c2ncnc3[nH]ccc23)C1` [Example 433], the negative-log IC50 (pIC50) is 5.00 to 6.00.
Take `NC(=O)c1cccc(NCC(=O)N[C@@H]2CCCN(c3ncnc4[nH]ccc34)C2)c1` [Example 434]: the pIC50 is 5.00 to 6.00.
To `O=C(CNc1cccc(-c2cnco2)c1)N[C@@H]1CCCN(c2ncnc3[nH]ccc23)C1` [Example 435] belongs 5.00 to 6.00; to `Cc1nccc(-c2cccc(NCC(=O)N[C@@H]3CCCN(c4ncnc5[nH]ccc45)C3)c2)n1` [Example 436], 5.00 to 6.00; to `O=C(CNc1cc(C(F)(F)F)ccc1F)N[C@@H]1CCCN(c2ncnc3[nH]ccc23)C1` [Example 437], 5.00 to 6.00.
With `O=C(CNc1c(F)cc(F)cc1F)N[C@@H]1CCCN(c2ncnc3[nH]ccc23)C1` [Example 438] the figure was 5.00 to 6.00; with `CC(C)(C)c1cccc(NCC(=O)N[C@@H]2CCCN(c3ncnc4[nH]ccc34)C2)c1` [Example 440], 6.00 to 7.00; with `O=C(CNc1cccc(OC(F)(F)C(F)F)c1)N[C@@H]1CCCN(c2ncnc3[nH]ccc23)C1` [Example 441], 6.00 to 7.00.
Take `COc1ccc(C(C)(C)C)cc1NCC(=O)N[C@@H]1CCCN(c2ncnc3[nH]ccc23)C1` [Example 442]: the pIC50 is 5.00 to 6.00.
Turning to `CC(C)c1ccc(NCC(=O)N[C@@H]2CCCN(c3ncnc4[nH]ccc34)C2)cc1` [Example 443], the negative-log IC50 (pIC50) is 5.00 to 6.00.
Consider `O=C(CNc1ccccc1N1CCOCC1)N[C@@H]1CCCN(c2ncnc3[nH]ccc23)C1` [Example 444], for which the negative logarithm of the IC50 (pIC50) was 5.00 to 6.00.
`O=C(CNc1ccc(F)c(F)c1F)N[C@@H]1CCCN(c2ncnc3[nH]ccc23)C1` [Example 445] had a negative-log IC50 (pIC50) of 6.00 to 7.00.
With `O=C(CNc1cc(F)ccc1F)N[C@@H]1CCCN(c2ncnc3[nH]ccc23)C1` [Example 446] the figure was 6.00 to 7.00.
For the compound `O=C(NC1CCCN(c2ncnc3[nH]ccc23)C1)[C@@H](CCCO)Nc1ccccc1` (stereo partly drawn) [Example 447], the negative-log IC50 (pIC50) is 5.00 to 6.00.
To `O=C(N[C@@H]1CCCN(c2ncnc3[nH]ccc23)C1)C(Nc1ccccc1)C(F)(F)F` (stereo partly drawn) [Example 449] belongs 5.00 to 6.00.
Take `CS(=O)(=O)c1ccccc1NCC(=O)N[C@@H]1CCCN(c2ncnc3[nH]ccc23)C1` [Example 450]: the negative logarithm of the IC50 (pIC50) was 5.00 to 6.00.
`COc1ccc(C)c(NCC(=O)N[C@@H]2CCCN(c3ncnc4[nH]ccc34)C2)c1` [Example 451]: the pIC50 is 5.00 to 6.00.
Consider `COc1cccc(C)c1NCC(=O)N[C@@H]1CCCN(c2ncnc3[nH]ccc23)C1` [Example 452], for which the pIC50 was 5.00 to 6.00.
Take `O=C(CNc1cc(F)c(F)cc1F)N[C@@H]1CCCN(c2ncnc3[nH]ccc23)C1` [Example 453]: the negative-log IC50 (pIC50) was 6.00 to 7.00.
As for `O=C(CNc1ccc(F)cc1F)N[C@@H]1CCCN(c2ncnc3[nH]ccc23)C1` [Example 454], the pIC50 is 5.00 to 6.00.
With `COCCOc1ccc(C(F)(F)F)cc1NCC(=O)N[C@@H]1CCCN(c2ncnc3[nH]ccc23)C1` [Example 455] the figure was 6.00 to 7.00; with `CNS(=O)(=O)c1ccccc1NCC(=O)N[C@@H]1CCCN(c2ncnc3[nH]ccc23)C1` [Example 457], 5.00 to 6.00.
Consider `O=C(CNC1c2ccccc2-c2ccccc21)N[C@@H]1CCCN(c2ncnc3[nH]ccc23)C1` [Example 459], for which the negative-log IC50 (pIC50) was 5.00 to 6.00.
On to `O=C(CNC(c1ccccc1)c1ccccc1)N[C@@H]1CCCN(c2ncnc3[nH]ccc23)C1` [Example 460], for which the pIC50 is 5.00 to 6.00.
`Cc1cccc(NC(C(=O)NC2CCCN(c3ncnc4[nH]ccc34)C2)C2CCCC2)c1` (stereo not drawn) [Example 461] showed a pIC50 of 5.00 to 6.00.
With `O=C(CNc1ccccc1)NC1CCCN(c2ncnc3[nH]cc(Cl)c23)C1` (stereo not drawn) [Example 462], the negative-log IC50 (pIC50) was below 5.00.
In the case of `N#Cc1c(N)ncnc1N1CCCC(NC(=O)CNc2ccccc2)C1` (stereo not drawn) [Example 463], the negative logarithm of the IC50 (pIC50) was below 5.00.
With `O=C(CNc1ccccc1)NC1CCCN(c2ncnc3[nH]cnc23)C1` (stereo not drawn) [Example 464] the figure was below 5.00.
